The test system of assay [1] is atopic dermatitis induced by capsaicin (Neo-Cap). The assay is described as follows: Neo-Cap model of atopic dermatitis induced by capsaicin. Format: in vivo, Sprague Dawley rats. The following applies: 10 μM applied daily on back and ears. As to the method: As such, to confirm whether the peptide according to an embodiment of the present invention can actually treat immune-related diseases by activating immunological functions in vivo, the present inventors examined whether the symptoms of atopic dermatitis can be ameliorated by treating the peptide on the animal model of atopic dermatitis. […]
In Neo-Cap model, the dermatitis score was measured two weeks after the injection of capsaicin, and the control group (PBS) and NCP112 were applied daily on the back (200 μL) and both ears (50 μL) at a concentration of 10 μM, and the dermatitis score was measured at one-week intervals for three weeks. The dermatitis score was measured on the face, ears, back (total) and ears, and back (application site) according to skin conditions, and the score was standardized by setting the score at the second week (i.e., the starting point) at 1, as shown in FIG. 4.
The mice analyzed in Experimental Example 3-1 were treated with the peptide according to an embodiment of the present invention, and after five weeks, the mice were sacrificed. […]

Another assay has as its system E. coli. The assay is described as follows: antibacterial test in nutrient broth (absorbance at 600 nm). The format is cell-based, Escherichia coli. As to the method:
(§1) In order to further improve the antibacterial activity of the peptides prepared in Example 2, an antibacterial test was performed. Gram-positive bacteria Staphylococcus epidermidis and Staphylococcus aureus) and gram-negative bacteria (Pseudomonas aeruginosa and E. coli) were prepared, streaked on agar plate medium using a four-quadrant sequential streak technique, and cultured in a 36° C. incubator overnight. On the next day, the strain colonies on the agar plate medium were inoculated into nutrient broth (3 mL) and cultured overnight at 36° C. and 220 rpm in a shaking incubator. On the next day, the bacteria culture was diluted and the absorbance at 600 nm was measured and adjusted to 0.5. Then, the bacteria culture was diluted in nutrient broth in a 1:100 ratio. Then, the peptides prepared in Example 2 were sequentially diluted in nutrient broth at concentrations of 0 μM, 1.25 μM, 2.5 μM, 5 μM, 10 μM, and 20 μM in an amount of 1 mL, respectively, and 1 mL of the diluted bacteria was inoculated, and cultured overnight at 36° C. and 220 rpm in a shaking incubator for 18 hours. Then, the absorbance was measured at 600 nm and the results were analyzed.

The test system of assay [2] is atopic dermatitis induced by capsaicin (2 W Cap). Kind of assay: 2 W Cap model of atopic dermatitis induced by capsaicin. Format: in vivo, Sprague Dawley rats. The following applies: 10 μM applied daily on back and ears. The text has this: As such, to confirm whether the peptide according to an embodiment of the present invention can actually treat immune-related diseases by activating immunological functions in vivo, the present inventors examined whether the symptoms of atopic dermatitis can be ameliorated by treating the peptide on the animal model of atopic dermatitis. Specifically, to confirm whether the peptide has the effect of ameliorating dermatitis in a model of atopic dermatitis induced by capsaicin, the present inventors observed the degree of skin improvement after treating the peptide (NCP112) according to an embodiment of the present invention on the animals with atopy (Neo-Cap and 2 W Cap) in the dermis of atopy-induced skin tissue, the applied site in the dermis, and the site with scratches. Neo-Cap, which is a representative model of atopic dermatitis, was subcutaneously injected with capsaicin (50 mg/kg) on the back skin of neonatal rats (Sprague Dawley rats) of less than 48 hours to induce atopic dermatitis. 2 W Cap, which is a model mimicking of atopic dermatitis developed in adolescent period or adults, was subcutaneously injected twice with capsaicin (25 mg/kg) of 2-week-old rats (Sprague Dawley) to induce atopic dermatitis.
In 2 W-Cap model, the dermatitis score was measured one week after the capsaicin injection, and the control group (PBS) and NCP112 were applied daily on the back (200 μL) and both ears (50 μL) at a concentration of 10 μM, and the dermatitis score was measured at one-week intervals for two weeks, in the same manner as in Neo-Cap model.
The mice analyzed in Experimental Example 3-1 were treated with the peptide according to an embodiment of the present invention, and after five weeks, the mice were sacrificed. The skin tissue at the site where dermatitis was induced by capsaicin treatment was removed in a size of about 3 cm×3 cm and the tissue was fixed in a 4% paraformaldehyde solution for two to three days. […]

Another assay has as its system Staphylococcus aureus. The assay is described as follows: antibacterial test in nutrient broth (absorbance at 600 nm). The format is cell-based. As to the method: as §1
For assay [3], the system named is Staphylococcus epidermidis. The description is as above. The format is cell-based. The method, then: as §1
For the next assay, the system named is Pseudomonas aeruginosa. The description is as above. The format is cell-based. The method, then: as §1
The next assay concerns the target T1, FPR2 (Homo sapiens, UniProt P25090).
T1 construct: expressed in transfected cells; host or cells: RBL cells overexpressing FPR2 (FPR2-RBL)
T1 sequence (P25090 1-351): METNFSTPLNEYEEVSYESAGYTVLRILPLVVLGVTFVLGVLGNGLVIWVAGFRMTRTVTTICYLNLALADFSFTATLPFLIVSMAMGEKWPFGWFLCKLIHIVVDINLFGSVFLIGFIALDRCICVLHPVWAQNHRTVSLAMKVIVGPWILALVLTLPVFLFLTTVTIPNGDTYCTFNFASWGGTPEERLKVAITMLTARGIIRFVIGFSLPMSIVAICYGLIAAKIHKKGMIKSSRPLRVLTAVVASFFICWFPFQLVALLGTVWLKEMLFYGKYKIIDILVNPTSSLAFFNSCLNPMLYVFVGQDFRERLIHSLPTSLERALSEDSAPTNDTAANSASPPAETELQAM
The assay is described as follows: intracellular calcium ions (Fura-2/AM) in RBL cells overexpressing FPR2. Format: cell-based. From the text:
To examine whether the peptide according to an embodiment of the present invention activates the in vivo immunological function of a living organism, the present inventors observed the changes in calcium ion permeability. Specifically, they measured the concentration of intracellular calcium ions to examine whether the peptide activates FPR2. To this end, the present inventors used RBL cells in which FPR2 was not expressed, RBL cells in which FPR1 was overexpressed (FPR1-RBL), and RBL cells in which FPR2 was overexpressed, and used Fura-2/AM, a staining material having a strong binding affinity for calcium, as a method for sensitive measurement of the release of intracellular calcium ions. […] Approximately 2×10^6 cells were taken each time and harvested by rapid centrifugation, and resuspended in 1 mL of Locke solution in which EGTA was added but no calcium ions were added, and the absorbance ratios at two wavelengths of 340 nm and 380 nm were monitored on a spectrophotometer. After treating with the peptide of the present invention at different concentrations (1 μM, 0.1 μM, and 0.01 μM) at intervals of about 1 minute, the difference in absorbance at two wavelengths of 340 nm and 380 nm was examined and this was later converted to the concentration of calcium ions freed into the cells according to the method of Grynkiewicz.
For orientation: Calcium assays in cells follow changes in intracellular calcium, usually with a dye or a luminescent sensor.

The nature of assay [4]: antibacterial activity of N-terminally lipid-modified peptides. The format is cell-based. The note with it: compared with peptides carrying other lipid groups (palmitoyl etc.) at the N-terminus. The text has this:
In order to further improve the antibacterial activity of the peptides that underwent the basic screening in Example 1, the present inventors have examined the antibacterial activity of these peptides by synthesizing modified peptides in which various lipid components, such as a palmitoyl group, an octanoyl group, etc., were attached to the N-terminus of these peptides.

The mark [5] stands for this setting: versus control (PBS), week 5, FIG. 6.
Where [6] appears, read: 10 μM peptide, 18 hours, 36° C., absorbance 600 nm.

For the substance Oct-KFKWRYm [NCP112], the “symptom of atopic dermatitis” value in assay [1] and in assay [2] was “effect of ameliorating the symptom of atopic dermatitis” throughout. The results for the “epidermal layer (thickness, H&E stained skin tissue)” value in assay [1] (setting [5]) and in assay [2] (setting [5]) were “slight decrease” and “significant decrease”, respectively. Moreover, the antibacterial activity entry is listed as “concentration-dependent manner” with E. coli (0 to 20 μM peptide, FIG. 1); “concentration-dependent manner” in the assay with Staphylococcus aureus (0 to 20 μM peptide, FIG. 1); “concentration-dependent manner” in assay [3] (0 to 20 μM peptide, FIG. 1); “concentration-dependent manner” with Pseudomonas aeruginosa (0 to 20 μM peptide, FIG. 1). In addition, the growth of bacteria result (in the assay on E. coli (setting [6]); with Staphylococcus aureus (setting [6]); in assay [3] (setting [6]); with Pseudomonas aeruginosa (setting [6])) was “completely inhibited the growth” each time. Moreover, in assay [2], the skin conditions entry is reported as “comparable to that of the normal conditions”. Besides, in the assay on Pseudomonas aeruginosa (FIG. 1), the “antibacterial effect compared among the 4 kinds of bacteria” value is recorded as “highest antibacterial effect”. Also, the “amount of intracellular concentration increase of calcium ions” value on FPR2 (1 μM, 0.1 μM and 0.01 μM peptide, FPR2-RBL cells, FIG. 2B) is given as “concentration-dependent feature”. Further, the intracellular calcium ions entry at FPR2 (FPR2-RBL versus RBL and FPR1-RBL cells, FIG. 2A) was “rapidly increased specifically in FPR2-RBL cells”. Also, in assay [4], the “antibacterial activity among modified peptides” value is “highest activity”.
